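Following 48 hours of exposure in 96-well plates, responses at five concentrations were used to interpolate endpoints linearly. The concentration for 50% growth inhibition is given as GI50.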 Activity calls are given as the source filed them. Cut-off read from the data, not from the text of the source: active = GI50 up to about 1.1 µM and inactive = higher.
Assays:
Assay in all cases: DTP human tumour cell line panel, 48 h
SN12C = system: SN12C
TK-10 = system: TK-10
HCT-15 = system: HCT-15
OVCAR-8 = system: OVCAR-8
SF-268 = system: SF-268
SK-MEL-28 = system: SK-MEL-28
SF-295 = system: SF-295
EKVX = system: EKVX
SNB-19 = system: SNB-19
OVCAR-4 = system: OVCAR-4
SF-539 = system: SF-539
COLO 205 = system: COLO 205
UO-31 = system: UO-31
CAKI-1 = system: CAKI-1
Malme-3M = system: Malme-3M
A549 = system: A549
LOX IMVI = system: LOX IMVI

Measured: GI50

COc1cc2c(cc1C1=NC(C)(C)CO1)OCO2
> 100 µM: HCT-15
inactive: SN12C > 100 µM | TK-10 > 100 µM | OVCAR-8 > 100 µM | SF-268 > 100 µM | SK-MEL-28 > 100 µM | SF-295 > 100 µM | EKVX > 100 µM | SNB-19 > 100 µM | OVCAR-4 > 100 µM | SF-539 > 100 µM | COLO 205 > 100 µM | UO-31 > 100 µM | CAKI-1 > 100 µM | Malme-3M > 100 µM | A549 > 100 µM

CC(c1ccc(Br)cc1)C(C(=O)O)C(=O)O (stereo not drawn)
inactive: LOX IMVI > 100 µM | SN12C > 100 µM | TK-10 > 100 µM | OVCAR-8 > 100 µM | SF-268 > 100 µM | SK-MEL-28 > 100 µM | SF-295 > 100 µM | EKVX > 100 µM | SNB-19 > 100 µM | OVCAR-4 > 100 µM | COLO 205 > 100 µM | UO-31 > 100 µM | CAKI-1 > 100 µM | Malme-3M > 100 µM | A549 > 100 µM
> 100 µM: HCT-15

CN(C)c1ccc(/C=c2\sc3nnc(-c4cccnc4)n3c2=O)cc1
inactive: LOX IMVI > 100 µM | SN12C > 100 µM | TK-10 > 100 µM | OVCAR-8 > 100 µM | SF-268 > 100 µM | SK-MEL-28 > 100 µM | SF-295 > 100 µM | EKVX > 100 µM | SNB-19 > 100 µM | OVCAR-4 > 100 µM | SF-539 > 100 µM | COLO 205 > 100 µM | UO-31 > 100 µM | CAKI-1 > 100 µM | Malme-3M > 100 µM | A549 > 100 µM
> 100 µM: HCT-15

CN1S(=O)(=O)N(C)P12(N=P(CP(=NP13(N(C)S(=O)(=O)N1C)N(C)S(=O)(=O)N3C)(c1ccccc1)c1ccccc1)(c1ccccc1)c1ccccc1)N(C)S(=O)(=O)N2C
> 100 µM: HCT-15
inactive: LOX IMVI > 100 µM | SN12C > 100 µM | TK-10 > 100 µM | OVCAR-8 > 100 µM | SF-268 > 100 µM | SK-MEL-28 > 100 µM | EKVX > 100 µM | SNB-19 > 100 µM | SF-539 > 100 µM | COLO 205 > 100 µM | UO-31 > 100 µM | CAKI-1 > 100 µM | Malme-3M > 100 µM | A549 > 100 µM

Cc1ccc(S(=O)(=O)NC(=O)C2S(=O)(=O)OCCOS2(=O)=O)cc1
inactive: SN12C > 100 µM | TK-10 > 100 µM | OVCAR-8 > 100 µM | SF-268 > 100 µM | SK-MEL-28 > 100 µM | SF-295 > 100 µM | EKVX > 100 µM | SNB-19 > 100 µM | OVCAR-4 > 100 µM | SF-539 > 100 µM | COLO 205 > 100 µM | UO-31 40.8 µM | CAKI-1 > 100 µM | Malme-3M > 100 µM | A549 > 100 µM

C#CCN(N=O)C(=O)NCCCC(NC(C)=O)C(=O)NCc1ccccc1 (stereo not drawn)
> 100 µM: HCT-15
inactive: LOX IMVI 82.2 µM | SN12C > 100 µM | TK-10 > 100 µM | OVCAR-8 > 100 µM | SF-268 > 100 µM | SK-MEL-28 > 100 µM | SF-295 > 100 µM | EKVX > 100 µM | SNB-19 > 100 µM | OVCAR-4 > 100 µM | SF-539 96.2 µM | COLO 205 66.4 µM | UO-31 > 100 µM | CAKI-1 54.6 µM | Malme-3M > 100 µM | A549 > 100 µM

C=CC[P@@]1(=O)O[C@H](c2ccccc2)C(C)N1C(C)C (stereo partly drawn)
inactive: LOX IMVI > 100 µM | SN12C > 100 µM | TK-10 > 100 µM | OVCAR-8 > 100 µM | SF-268 > 100 µM | SK-MEL-28 > 100 µM | SF-295 > 100 µM | EKVX > 100 µM | SNB-19 > 100 µM | OVCAR-4 > 100 µM | SF-539 > 100 µM | UO-31 > 100 µM | Malme-3M > 100 µM | A549 > 100 µM
> 100 µM: HCT-15

O=S(=O)(O)c1ccc(/N=N/c2nc(C(F)(F)F)c(C(F)(F)F)[nH]2)cc1
31.4 µM: HCT-15
inactive: LOX IMVI 15.8 µM | SN12C 66.5 µM | TK-10 > 100 µM | OVCAR-8 29.4 µM | SF-268 56.5 µM | SK-MEL-28 19.2 µM | SF-295 65.2 µM | EKVX 43.5 µM | SNB-19 29.9 µM | OVCAR-4 21.6 µM | SF-539 29.6 µM | COLO 205 74.8 µM | UO-31 34 µM | CAKI-1 29.2 µM | Malme-3M 29.2 µM | A549 61.8 µM

From ChEMBL document CHEMBL1201862, “PubChem BioAssay data set” (2004)
